Source: patent publication US8541588B2, “Sulfonamide derivatives” (Pfizer Limited, priority 2009, dated 2013)

molecular target: T1, Nav1.7 (or SCN9A) channel; HEK cells stably transfected with hSCN9A (Homo sapiens, UniProt Q15858); assay: Nav1.7 block, PatchXpress 7000 automated whole-cell voltage clamp, estimated IC50 (EIC50); format: cell-based; conditions: estimated IC50; hSCN9A HEK cells, PatchXpress platform; Examples 815-1040
T1 construct: expressed in transfected cells
T1 sequence (Q15858 whole entry): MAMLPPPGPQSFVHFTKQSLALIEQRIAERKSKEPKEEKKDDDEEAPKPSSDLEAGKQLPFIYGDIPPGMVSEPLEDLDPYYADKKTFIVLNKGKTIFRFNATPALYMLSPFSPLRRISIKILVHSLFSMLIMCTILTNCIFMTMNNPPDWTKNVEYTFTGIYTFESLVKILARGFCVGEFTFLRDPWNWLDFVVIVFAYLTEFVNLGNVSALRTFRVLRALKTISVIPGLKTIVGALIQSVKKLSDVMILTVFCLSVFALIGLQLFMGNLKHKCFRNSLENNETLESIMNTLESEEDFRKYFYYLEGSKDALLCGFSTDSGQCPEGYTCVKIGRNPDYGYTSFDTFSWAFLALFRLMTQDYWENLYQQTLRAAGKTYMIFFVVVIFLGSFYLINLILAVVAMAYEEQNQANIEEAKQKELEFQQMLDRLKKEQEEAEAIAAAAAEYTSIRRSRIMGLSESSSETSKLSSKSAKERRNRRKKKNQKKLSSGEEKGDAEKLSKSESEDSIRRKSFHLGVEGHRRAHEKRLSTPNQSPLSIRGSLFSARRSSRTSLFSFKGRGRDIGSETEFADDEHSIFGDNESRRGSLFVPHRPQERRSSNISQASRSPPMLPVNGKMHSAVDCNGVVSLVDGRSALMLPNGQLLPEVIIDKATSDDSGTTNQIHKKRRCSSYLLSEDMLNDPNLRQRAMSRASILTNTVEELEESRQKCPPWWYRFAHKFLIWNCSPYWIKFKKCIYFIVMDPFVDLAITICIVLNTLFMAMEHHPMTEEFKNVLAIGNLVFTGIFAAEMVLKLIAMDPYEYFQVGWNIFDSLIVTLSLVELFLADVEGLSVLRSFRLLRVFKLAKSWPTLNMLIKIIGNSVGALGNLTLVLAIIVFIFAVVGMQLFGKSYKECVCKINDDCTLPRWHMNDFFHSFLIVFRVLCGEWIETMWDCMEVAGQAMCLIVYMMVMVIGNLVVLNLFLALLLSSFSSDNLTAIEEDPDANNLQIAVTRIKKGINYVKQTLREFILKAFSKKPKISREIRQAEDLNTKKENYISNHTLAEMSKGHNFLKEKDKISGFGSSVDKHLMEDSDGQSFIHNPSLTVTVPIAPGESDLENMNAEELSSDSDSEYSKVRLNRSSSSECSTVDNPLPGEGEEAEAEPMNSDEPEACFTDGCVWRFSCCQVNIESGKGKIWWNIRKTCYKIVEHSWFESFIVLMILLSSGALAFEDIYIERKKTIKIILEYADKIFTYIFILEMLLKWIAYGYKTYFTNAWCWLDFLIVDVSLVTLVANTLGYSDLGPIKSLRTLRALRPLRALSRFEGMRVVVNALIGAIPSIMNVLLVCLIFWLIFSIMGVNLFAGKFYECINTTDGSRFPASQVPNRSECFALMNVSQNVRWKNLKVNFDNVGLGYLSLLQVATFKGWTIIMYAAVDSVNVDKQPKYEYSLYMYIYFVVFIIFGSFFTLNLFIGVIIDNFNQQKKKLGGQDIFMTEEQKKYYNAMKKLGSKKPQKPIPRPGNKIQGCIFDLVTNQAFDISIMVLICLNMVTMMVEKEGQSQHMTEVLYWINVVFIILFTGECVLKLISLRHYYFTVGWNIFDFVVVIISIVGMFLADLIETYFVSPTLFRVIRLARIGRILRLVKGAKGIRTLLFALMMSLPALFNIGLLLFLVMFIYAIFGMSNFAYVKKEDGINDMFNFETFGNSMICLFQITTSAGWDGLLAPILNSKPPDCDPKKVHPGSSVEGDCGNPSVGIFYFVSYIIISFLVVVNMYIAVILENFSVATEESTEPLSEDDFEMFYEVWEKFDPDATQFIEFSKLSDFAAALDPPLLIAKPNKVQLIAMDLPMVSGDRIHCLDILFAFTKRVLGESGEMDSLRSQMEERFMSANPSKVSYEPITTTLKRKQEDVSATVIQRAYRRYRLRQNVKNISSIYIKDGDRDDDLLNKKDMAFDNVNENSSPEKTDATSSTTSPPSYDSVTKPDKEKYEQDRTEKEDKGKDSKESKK

SMILES	IC50 [nM]
Cc1cnncc1-c1cc(Cl)ccc1Oc1ccc(S(=O)(=O)Nc2ncns2)cc1C#N [Example 914, 4-[4-chloro-2-(5-methylpyridazin-4-yl)phenoxy]-3-cyano-N-1,2,4-thiadiazol-5-ylbenzenesulfonamide]	180
Cn1nccc1-c1cc(Cl)ccc1Oc1ccc(S(=O)(=O)Nc2cccnn2)cc1C#N [Example 915, 4-[4-chloro-2-(1-methyl-1H-pyrazol-5-yl)phenoxy]-3-cyano-N-pyridazin-3-ylbenzenesulfonamide]	1600
COc1nccnc1NS(=O)(=O)c1ccc(Oc2ccc(Cl)cc2-c2ccnn2C)c(C#N)c1 [Example 916, 4-[4-chloro-2-(1-methyl-1H-pyrazol-5-yl)phenoxy]-3-cyano-N-(3-methoxypyrazin-2-yl)benzenesulfonamide]	>10000
O=S(=O)(Nc1nncs1)c1cc(F)c(Oc2ccc(C(F)(F)F)cc2-c2ccnnc2)cc1F [Example 917, 2,5-difluoro-4-[2-pyridazin-4-yl-4-(trifluoromethyl)phenoxy]-N-1,3,4-thiadiazol-2-ylbenzenesulfonamide]	240
O=S(=O)(Nc1ncns1)c1cc(F)c(Oc2ccc(C(F)(F)F)cc2-c2cccnn2)cc1F [Example 920, 2,5-difluoro-4-[2-pyridazin-3-yl-4-(trifluoromethyl)phenoxy]-N-1,2,4-thiadiazol-5-ylbenzenesulfonamide]	310
Cn1nccc1-c1cc(Cl)ccc1Oc1ccc(S(=O)(=O)Nc2cnsn2)cc1C#N [Example 921, 4-[4-chloro-2-(1-methyl-1H-pyrazol-5-yl)phenoxy]-3-cyano-N-1,2,5-thiadiazol-3-ylbenzenesulfonamide]	3900
Cn1nccc1-c1cc(Cl)ccc1Oc1ccc(S(=O)(=O)Nc2cc[nH]n2)cc1C#N [Example 922, 4-[4-chloro-2-(1-methyl-1H-pyrazol-5-yl)phenoxy]-3-cyano-N-1H-pyrazol-3-ylbenzenesulfonamide]	>10000

Further compounds by falling IC50, results first:

IC50 [nM]	SMILES
170	O=S(=O)(Nc1cscn1)c1ccc(Oc2ccc(Cl)cc2-c2ccn[nH]2)c(Cl)c1 [Example 911, 3-chloro-4-[4-chloro-2-(1H-pyrazol-5-yl)phenoxy]-N-1,3-thiazol-4-ylbenzenesulfonamide]
140	Nc1cc(-c2cc(Cl)ccc2Oc2cc(F)c(S(=O)(=O)Nc3cnccn3)cc2Cl)ccn1 [Example 918, 4-[2-(2-aminopyridin-4-yl)-4-chlorophenoxy]-5-chloro-2-fluoro-N-pyrazin-2-ylbenzenesulfonamide]
24	N#Cc1cc(S(=O)(=O)Nc2nncs2)ccc1Oc1ccc(Cl)cc1-c1ccnc(N2CCC2)c1 [Example 919, 4-[2-(2-azetidin-1-ylpyridin-4-yl)-4-chlorophenoxy]-3-cyano-N-1,3,4-thiadiazol-2-ylbenzenesulfonamide]
14	Nc1[nH]ncc1-c1cc(Cl)ccc1Oc1ccc(S(=O)(=O)Nc2cscn2)cc1Cl [Example 912, 4-[2-(5-amino-1H-pyrazol-4-yl)-4-chlorophenoxy]-3-chloro-N-1,3-thiazol-4-ylbenzenesulfonamide]
12	O=S(=O)(Nc1ncns1)c1cc(Cl)c(Oc2ccc(Cl)cc2-c2ccnnc2)cc1F [Example 910, 5-chloro-4-(4-chloro-2-pyridazin-4-ylphenoxy)-2-fluoro-N-1,2,4-thiadiazol-5-ylbenzenesulfonamide]
2.1	O=S(=O)(Nc1ncns1)c1cc(Cl)c(Oc2ccc(OC(F)(F)F)cc2-c2ccnnc2)cc1F [Example 909, 5-chloro-2-fluoro-4-[2-pyridazin-4-yl-4-(trifluoromethoxy)phenoxy]-N-1,2,4-thiadiazol-5-ylbenzenesulfonamide]
0.9	Nc1[nH]ncc1-c1cc(Cl)ccc1Oc1ccc(S(=O)(=O)Nc2ncns2)cc1Cl [Example 913, 4-[2-(5-amino-1H-pyrazol-4-yl)-4-chlorophenoxy]-3-chloro-N-1,2,4-thiadiazol-5-ylbenzenesulfonamide]
